Assays:
[1] = tested on: normal NK cells expanded with K562-aAPC; experiment: drug sensitivity score (DSS) (DSS units); higher = more sensitive; extreme values may be limits of the assay; settings: 72 h; IL-2 2.5 ng/mL
Protocol: (§1)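 Drug sensitivity and resistance testing on K562-aAPC-expanded normal NK cells: 5 concentrations (10-fold steps over a 10,000-fold range), 72 h at 37 °C, viability by CellTiter-Glo normalised to DMSO and benzethonium chloride controls; DSS from the fitted curve.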

[2] = tested on: normal primary NK cells, pool 2 (3 donors) (IL-2 2.5 ng/mL); experiment: percent inhibition of viability; higher = more inhibition; settings: 72 h
[3] = tested on: IMC-1 (IL-2 20 ng/mL); experiment: as above; settings: 72 h
[4] = tested on: normal primary NK cells, pool 3 (3 donors) (IL-2 2.5 ng/mL); experiment: as above; settings: 72 h
[5] = tested on: normal primary NK cells, pool 2 (3 donors) (IL-2 2.5 ng/mL); experiment: drug sensitivity score (DSS) (DSS units); higher = more sensitive; extreme values may be limits of the assay; settings: 72 h
[6] = tested on: IMC-1 (IL-2 20 ng/mL); experiment: as above; settings: 72 h
[7] = tested on: normal primary NK cells, pool 3 (3 donors) (IL-2 2.5 ng/mL); experiment: as above; settings: 72 h
[8] = tested on: normal NK cells expanded with K562-aAPC; experiment: percent inhibition of viability; higher = more inhibition; settings: 72 h, IL-2 2.5 ng/mL
Protocol: as §1

Oc1ncc(N(CCCl)CCCl)c(O)n1 [Uramustine] (max concentration tested 10000 nM)
Settings	drug sensitivity score
[1]	0.53
[5]	0.26
[6]	0
[7]	0

percent inhibition of viability [%]
Settings	1 nM	10 nM	100 nM	1000 nM	10000 nM
[2]	-0.88	5.22	7.92	6.65	14.2
[3]	-9.69	0.32	0.64	0.1	6.18
[4]	-4.89	6.36	6.72	4.62	8.5
[8]	-9.68	-7.07	-4	3.8	14.6

CN(C)C(=O)c1cc2cnc(Nc3ccc(N4CCNCC4)cn3)nc2n1C1CCCC1 [Ribociclib] (max concentration tested 10000 nM)
Settings	drug sensitivity score
[1]	3.05
[5]	3.47
[6]	0
[7]	1.58

percent inhibition of viability [%]
Settings	1 nM	10 nM	100 nM	1000 nM	10000 nM
[2]	-4.92	-2.8	8.5	5.64	48.2
[3]	-7.57	-0.52	-5.29	0.27	7.32
[4]	-3.67	-4.43	6	1.54	30.9
[8]	-3.33	-2.59	0.08	20.6	22.7

CC1(C)CCC(CN2CCN(c3ccc(C(=O)NS(=O)(=O)c4ccc(NCC5CCOCC5)c([N+](=O)[O-])c4)c(Oc4cnc5[nH]ccc5c4)c3)CC2)=C(c2ccc(Cl)cc2)C1 [Venetoclax] (max concentration tested 1000 nM)
Settings	drug sensitivity score
[1]	0.35
[5]	2.56
[6]	0
[7]	0.37

percent inhibition of viability [%]
Settings	0.1 nM	1 nM	10 nM	100 nM	1000 nM
[2]	-15.6	-3.12	0.73	7.62	31.3
[3]	-3.1	2.12	-1.24	-0.5	5.01
[4]	-10.2	-7.52	-5.3	1.76	14.7
[8]	3.87	-7.3	-4.26	-4.09	18.9

CCN(CC)CCCC(C)Nc1c2ccc(Cl)cc2nc2ccc(OC)cc12 (centres undefined) [Mepacrine] (max concentration tested 50000 nM)
Settings	drug sensitivity score
[1]	17.6
[5]	19.4
[6]	18.2
[7]	18.1

percent inhibition of viability [%]
Settings	5 nM	50 nM	500 nM	5000 nM	50000 nM
[2]	-13.9	-3.31	9.39	98	101
[3]	-0.62	-1.1	2.08	100	101
[4]	-11.7	0.46	1.96	98.8	101
[8]	-2.84	-3.46	-4.79	100	101

CC(=O)N(O)CCCCCNC(=O)CCC(=O)N(O)CCCCCNC(=O)CCC(=O)N(O)CCCCCN [Deferoxamine] (max concentration tested 10000 nM)
Settings	drug sensitivity score
[1]	8.23
[5]	3.84
[6]	5.37
[7]	4.59

percent inhibition of viability [%]
Settings	1 nM	10 nM	100 nM	1000 nM	10000 nM
[2]	-2.8	5.46	3.49	11.1	42.7
[3]	-6.25	-3.2	-4.14	-0.7	97.2
[4]	-1.79	6.03	10.4	16.1	53.2
[8]	-3.82	-8.67	-5.64	22.8	86.1

O=C(O)C(=O)O.[NH-][C@@H]1CCCC[C@H]1[NH-].[Pt+2] [Oxaliplatin] (max concentration tested 100000 nM)
Settings	drug sensitivity score
[1]	18.5
[5]	10.7
[6]	11.6
[7]	11.3

percent inhibition of viability [%]
Settings	10 nM	100 nM	1000 nM	10000 nM	100000 nM
[2]	-2.45	-3.26	15.2	44.2	93.1
[3]	-0.91	5.5	6.16	51.1	101
[4]	-8.94	-0.68	20.4	44	97.6
[8]	0.69	4.04	21.3	86.9	101

Source: the supplement of paper PMC5908809
